Experimental data from ChEMBL document CHEMBL1126039, “Synthesis and antiviral activity of 1-cyclobutyl-5-(2-bromovinyl)uracil nucleoside analogues and related compounds” (J Med Chem, 1992).

Key:
WI-38 [1] = assay: Anti viral activity against HSV-2(186) in WI-38 cell monolayers; assay type: functional; settings: Homo sapiens, read-out: ID50 (the source's name)
WI-38 [2] = assay: Anti viral activity against VZV(Ito strain) in WI-38 cell monolayers.; assay type: functional; settings: Homo sapiens, read-out: ID50 (the source's name)
WI-38 [3] = assay: Anti viral activity against VZV(Ellen strain) in WI-38 cell monolayers.; assay type: functional; settings: Homo sapiens, read-out: ID50 (the source's name)
WI-38 [4] = assay: Anti viral activity against HSV-1(Schooler) in WI-38 cell monolayers; assay type: functional; settings: Homo sapiens, read-out: ID50 (the source's name)
WI-38 [5] = assay: Anti viral activity against VZV(9021 strain) in WI-38 cell monolayers.; assay type: functional; settings: Homo sapiens, read-out: ID50 (the source's name)
WI-38 [6] = assay: Growth inhibitory activity against WI-38 cells; assay type: functional; settings: Homo sapiens, read-out: ID50 (the source's name)
[7] = molecular target: T1, Thymidine kinase, cytosolic (Homo sapiens) (UniProt P04183); settings: Human alphaherpesvirus 3
T1 sequence (whole entry): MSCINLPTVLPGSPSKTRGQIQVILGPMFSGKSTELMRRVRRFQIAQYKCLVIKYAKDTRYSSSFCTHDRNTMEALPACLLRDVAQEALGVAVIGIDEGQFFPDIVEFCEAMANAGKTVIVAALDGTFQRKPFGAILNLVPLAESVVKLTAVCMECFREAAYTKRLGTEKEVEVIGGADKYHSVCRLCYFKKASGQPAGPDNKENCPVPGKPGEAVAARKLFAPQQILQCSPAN

WI-38 [8] = assay: Anti viral activity against HCMV(AD169) in WI-38 cell monolayers; assay type: functional; settings: Homo sapiens, read-out: ID50 (the source's name)
WI-38 [9] = assay: Anti viral activity against VZV(pplla strain) in WI-38 cell monolayers.; assay type: functional; settings: Homo sapiens, read-out: ID50 (the source's name)
[10] = Therapeutic index of compound maesured as ratio of ID50 for WI-38 cell growth inhibition / ID50 anti-VZV (strain Ellen); assay type: cell-based; settings: human, WI-38 cells; read-out: Therapeutic index
WI-38 [11] = assay: Anti viral activity against VZV (Kanno-Kohmura(TK-) strain) in WI-38 cell monolayers.; assay type: functional; settings: Homo sapiens, read-out: ID50 (the source's name)
[12] = molecular target: T1, Thymidine kinase, cytosolic (Homo sapiens); settings: Human alphaherpesvirus 3; remark: listed apart in the source
WI-38 [13] = assay: Anti viral activity against VZV(Oka strain) in WI-38 cell monolayers.; assay type: functional; settings: Homo sapiens, read-out: ID50 (the source's name)
WI-38 [14] = assay: Anti viral activity against HSV-2 in WI-38 cell monolayers.; assay type: functional; settings: Homo sapiens, read-out: ID50 (the source's name)
WI-38 [15] = assay: Anti viral activity against HCMV in WI-38 cell monolayers.; assay type: functional; settings: Homo sapiens, read-out: ID50 (the source's name)
WI-38 [16] = assay: Anti viral activity against HSV-1 in WI-38 cell monolayers.; assay type: functional; settings: Homo sapiens, read-out: ID50 (the source's name)
WI-38 [17] = assay: Anti viral activity against VZV in WI-38 cell monolayers.; assay type: functional; settings: Homo sapiens, read-out: ID50 (the source's name)
WI-38 [18] = assay: Anti viral activity against VZV(40a2 (TK-) strain) in WI-38 cell monolayers.; assay type: functional; settings: Homo sapiens, read-out: ID50 (the source's name)

SMILES | IC50 (WI-38 [1]) [nM] | IC50 (WI-38 [2]) [nM] | IC50 (WI-38 [3]) [nM] | IC50 (WI-38 [4]) [nM] | IC50 (WI-38 [5]) [nM] | IC50 (WI-38 [6]) [nM] | Kinase activity (pM min-1*ml-1) [7] | IC50 (WI-38 [8]) [nM] | IC50 (WI-38 [9]) [nM] | selectivity ratio [10] | IC50 (WI-38 [11]) [nM] | Kinase activity (pM min-1*ml-1) [12] | IC50 (WI-38 [13]) [nM] | IC50 (WI-38 [14]) [nM] | IC50 (WI-38 [15]) [nM] | IC50 (WI-38 [16]) [nM] | IC50 (WI-38 [17]) [nM] | IC50 (WI-38 [18]) [nM]
O=c1[nH]c(=O)n([C@@H]2C[C@H](CO)C2CO)cc1/C=C/I (stereo partly specified) | > 260000 | 100 | 50 | 13000 | 130 | > 800000 | 736 | 260000 | 260 | > 2.7 | > 260000 | – | – | – | – | – | – | –
O=c1[nH]c(=O)n([C@@H]2O[C@H](CO)[C@@H](O)[C@@H]2O)cc1/C=C/Br [SORIVUDINE] | 120000 | 7 | 3 | 140 | 3 | > 75000 | 140 | > 290000 | 3 | > 7.5 | > 72000 | 95 | 3 | – | – | – | – | –
O=c1[nH]c(=O)n([C@@H]2C[C@H](CO)C2CO)cc1/C=C/Br (stereo partly specified) | > 300000 | 15 | 200 | 3000 | 150 | > 750000 | 63 | > 300000 | 200 | > 1.3 | 150000 | – | – | – | – | – | – | –
Cc1cn([C@H]2C[C@H](O)[C@@H](CO)O2)c(=O)[nH]c1=O | – | – | – | – | – | – | 585 | – | – | – | – | 174 | – | – | – | – | – | –
O=c1[nH]c(=O)n([C@@H]2C[C@H](CO)C2O)cc1I (stereo partly specified) | – | – | – | – | – | – | – | – | – | – | – | – | – | > 300000 | > 300000 | > 300000 | > 300000 | –
O=c1[nH]c(=O)n(C2CC(CO)C2CO)cc1/C=C/Br (racemic) | > 300000 | 150 | 150 | > 6000 | 600 | > 750000 | 1280 | > 300000 | 200 | > 2.5 | > 300000 | – | 600 | – | – | – | – | > 300000
O=c1[nH]c(=O)n([C@@H]2C[C@H](CO)C2CO)cc1/C=C/Cl (stereo partly specified) | > 280000 | 50 | 400 | 3500 | 1100 | > 400000 | 333 | 350000 | – | > 2 | > 220000 | – | – | – | – | – | – | –
O=c1[nH]c(=O)n([C@@H]2C[C@H](CO)C2CO)cc1I (stereo partly specified) | – | – | 28000 | – | – | – | – | – | – | – | – | – | – | – | – | 14000 | – | –
Nc1nc2c(ncn2COCCO)c(=O)[nH]1 [ACYCLOVIR] | 800 | – | – | 200 | – | > 750000 | 13 | 40000 | – | – | – | – | – | – | – | – | – | –
